For nine compounds, inhibition, IC50 and melting point results are on record in publication PMC9268448, “Synthesis of 4,5-Dihydro-1H-[1,2]dithiolo[3,4-c]quinoline-1-thione Derivatives and Their Application as Protein Kinase Inhibitors” (Molecules, 2022).

Molecules are shown by their SMILES.

One data set addresses EGFR[L858R][T790] (Homo sapiens, UniProt P00533, L858R/T790M). The experiment in a line: Kinase inhibition ELISA, EGFR[L858R][T790]. The note with it: 10 μM test compound, 150 μM ATP. Type of data set: biochemical. The procedure:
(§1) Study of inhibitory activity. The kinase activity was determined by enzyme-linked immunosorbent assay (ELISA) in polypropylene plates (Costar, 3363) in reaction buffer (20 mM HEPES, pH 7.5, 15 mM MgCl2, 2 mM DTT, 0.2 mM Na3VO4, 0.005% Triton X-100) for 60 min at 30 °C with vigorous stirring. The final concentration of the reaction components: 0.05 μg mL^–1 of the corresponding kinase, 5 nM Histon H3 biotinylated substrate (1–21) (Anaspec, 61702), 150 μM ATP (Sigma, A6419), 10 μM test compound, 5% DMSO. The enzymatic reaction was stopped with a buffer containing 20 mM HEPES (Sigma, H4034), pH 7.5, and 150 mM EDTA (Sigma, E5513). Further, to detect the phosphorylated substrate, the reaction mixture was transferred to pre-prepared plates (Nunc, 468667) coated with neutravidin (1 ng per well; Pierce, 31000) and treated with bovine serum albumin (BSA) to block non-specific binding sites. Incubation was carried out for 1 h at room temperature. After washing the plates three times with phosphate buffer saline (PBS, pH 7.4) with Tween-20, they were incubated sequentially with anti-phospho-Histon H3 antibodies (0.3 ng μL^–1; Millipore, 04-746) and with specific antibodies conjugated with an enzyme-label (peroxidase) Anti-rabbit IgG, HRP-linked Antibody (titer 1/5000; Cell Signaling, 7074). After completion of each incubation step (60 min at room temperature (~20 °C) and continuous stirring), the plates were washed three times from unbound antibody molecules with a PBS solution with Tween-20 and 100 μL of substrate (3.3′,5.5′-tetramethylbenzidine (TMB) dihydrochloride, Sigma, T8768) prepared according to the manufacturer’s instructions. Before measuring the optical density, the reaction was stopped using 0.5 M Н2SO4. The optical density of the solution was determined at λ = 450 nm using a tablet spectrophotometer (TECAN Safire). The data obtained were processed and imported into the HTSCalc program.

The next data set has as its target ALK (Homo sapiens, UniProt Q9UM73). Kind of data set: Kinase inhibition ELISA, ALK. Type of data set: biochemical. The note with it: 10 μM test compound, 150 μM ATP. The protocol: as §1
Background: ELISA stands for enzyme-linked immunosorbent assay.

A further data set has as its target cRAF[Y340D][Y341D] (Homo sapiens, UniProt P04049, Y340D/Y341D). The experiment in a line: Kinase inhibition ELISA, cRAF[Y340D][Y341D]. Type of data set: biochemical. The note with it: for inhibition at 10 µM: 10 μM test compound, 150 μM ATP; for IC50: ten concentration points. The procedure:
(§2) Study of inhibitory activity. […] The enzymatic reaction was stopped with a buffer containing 20 mM HEPES (Sigma, H4034), pH 7.5, and 150 mM EDTA (Sigma, E5513). […] Incubation was carried out for 1 h at room temperature. […] After completion of each incubation step (60 min at room temperature (~20 °C) and continuous stirring), the plates were washed three times from unbound antibody molecules with a PBS solution with Tween-20 and 100 μL of substrate (3.3′,5.5′-tetramethylbenzidine (TMB) dihydrochloride, Sigma, T8768) prepared according to the manufacturer’s instructions. Before measuring the optical density, the reaction was stopped using 0.5 M Н2SO4. The optical density of the solution was determined at λ = 450 nm using a tablet spectrophotometer (TECAN Safire). The data obtained were processed and imported into the HTSCalc program.
(§3) The data were analyzed using GraphPad Prism software (v. 3.1).

A further data set has as its target JAK2 (Homo sapiens, UniProt O60674). The experiment in a line: Kinase inhibition ELISA, JAK2. Type of data set: biochemical. The note with it: 10 μM test compound, 150 μM ATP. The procedure:
as §1

A further data set has as its target T1, JAK3 (Homo sapiens, UniProt P52333).
T1 sequence (P52333 1-1124): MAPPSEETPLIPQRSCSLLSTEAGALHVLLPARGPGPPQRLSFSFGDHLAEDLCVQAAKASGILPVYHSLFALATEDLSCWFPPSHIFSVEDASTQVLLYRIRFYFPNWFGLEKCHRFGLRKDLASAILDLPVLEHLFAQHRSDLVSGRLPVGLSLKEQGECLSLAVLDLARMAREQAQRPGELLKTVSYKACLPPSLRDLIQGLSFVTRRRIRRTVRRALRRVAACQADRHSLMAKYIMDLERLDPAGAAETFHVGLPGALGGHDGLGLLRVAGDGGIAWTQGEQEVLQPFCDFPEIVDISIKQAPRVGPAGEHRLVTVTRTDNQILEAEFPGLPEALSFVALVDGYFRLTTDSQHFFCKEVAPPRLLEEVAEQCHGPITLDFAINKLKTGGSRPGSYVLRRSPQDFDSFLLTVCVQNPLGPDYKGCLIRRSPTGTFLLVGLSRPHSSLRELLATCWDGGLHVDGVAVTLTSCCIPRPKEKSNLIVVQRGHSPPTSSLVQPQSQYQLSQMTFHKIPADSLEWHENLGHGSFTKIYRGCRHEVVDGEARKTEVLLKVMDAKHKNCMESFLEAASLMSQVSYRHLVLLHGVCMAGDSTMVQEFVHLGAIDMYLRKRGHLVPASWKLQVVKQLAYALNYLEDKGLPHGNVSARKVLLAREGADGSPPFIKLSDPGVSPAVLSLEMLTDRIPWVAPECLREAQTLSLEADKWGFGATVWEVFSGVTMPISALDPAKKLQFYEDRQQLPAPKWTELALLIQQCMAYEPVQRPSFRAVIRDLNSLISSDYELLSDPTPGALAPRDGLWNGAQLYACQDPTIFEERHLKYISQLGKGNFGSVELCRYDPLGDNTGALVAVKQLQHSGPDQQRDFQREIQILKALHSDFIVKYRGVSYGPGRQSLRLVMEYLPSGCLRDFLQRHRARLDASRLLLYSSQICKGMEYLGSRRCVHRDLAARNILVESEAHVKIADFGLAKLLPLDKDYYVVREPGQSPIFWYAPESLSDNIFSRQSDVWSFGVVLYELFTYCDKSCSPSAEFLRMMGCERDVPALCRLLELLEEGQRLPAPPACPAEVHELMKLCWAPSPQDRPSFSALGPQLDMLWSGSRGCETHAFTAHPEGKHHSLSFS
Kind of data set: Kinase inhibition ELISA, JAK3. Type of data set: biochemical. The note with it: for inhibition at 10 µM: 10 μM test compound, 150 μM ATP; for IC50: ten concentration points. The protocol: as §1
For compounds 2a–c,q, the IC50 value (μmol L^–1) was calculated from ten concentration points (in triplicate dilution) obtained twice. The data were analyzed using GraphPad Prism software (v. 3.1).

A further data set deals with T2, NPM1-ALK (Homo sapiens, UniProt Q9UM73).
T2 construct: NPM1 (nucleophosmin, P06748) fusion partner
T2 sequence (Q9UM73 whole entry, looked up, the tested form may be a part): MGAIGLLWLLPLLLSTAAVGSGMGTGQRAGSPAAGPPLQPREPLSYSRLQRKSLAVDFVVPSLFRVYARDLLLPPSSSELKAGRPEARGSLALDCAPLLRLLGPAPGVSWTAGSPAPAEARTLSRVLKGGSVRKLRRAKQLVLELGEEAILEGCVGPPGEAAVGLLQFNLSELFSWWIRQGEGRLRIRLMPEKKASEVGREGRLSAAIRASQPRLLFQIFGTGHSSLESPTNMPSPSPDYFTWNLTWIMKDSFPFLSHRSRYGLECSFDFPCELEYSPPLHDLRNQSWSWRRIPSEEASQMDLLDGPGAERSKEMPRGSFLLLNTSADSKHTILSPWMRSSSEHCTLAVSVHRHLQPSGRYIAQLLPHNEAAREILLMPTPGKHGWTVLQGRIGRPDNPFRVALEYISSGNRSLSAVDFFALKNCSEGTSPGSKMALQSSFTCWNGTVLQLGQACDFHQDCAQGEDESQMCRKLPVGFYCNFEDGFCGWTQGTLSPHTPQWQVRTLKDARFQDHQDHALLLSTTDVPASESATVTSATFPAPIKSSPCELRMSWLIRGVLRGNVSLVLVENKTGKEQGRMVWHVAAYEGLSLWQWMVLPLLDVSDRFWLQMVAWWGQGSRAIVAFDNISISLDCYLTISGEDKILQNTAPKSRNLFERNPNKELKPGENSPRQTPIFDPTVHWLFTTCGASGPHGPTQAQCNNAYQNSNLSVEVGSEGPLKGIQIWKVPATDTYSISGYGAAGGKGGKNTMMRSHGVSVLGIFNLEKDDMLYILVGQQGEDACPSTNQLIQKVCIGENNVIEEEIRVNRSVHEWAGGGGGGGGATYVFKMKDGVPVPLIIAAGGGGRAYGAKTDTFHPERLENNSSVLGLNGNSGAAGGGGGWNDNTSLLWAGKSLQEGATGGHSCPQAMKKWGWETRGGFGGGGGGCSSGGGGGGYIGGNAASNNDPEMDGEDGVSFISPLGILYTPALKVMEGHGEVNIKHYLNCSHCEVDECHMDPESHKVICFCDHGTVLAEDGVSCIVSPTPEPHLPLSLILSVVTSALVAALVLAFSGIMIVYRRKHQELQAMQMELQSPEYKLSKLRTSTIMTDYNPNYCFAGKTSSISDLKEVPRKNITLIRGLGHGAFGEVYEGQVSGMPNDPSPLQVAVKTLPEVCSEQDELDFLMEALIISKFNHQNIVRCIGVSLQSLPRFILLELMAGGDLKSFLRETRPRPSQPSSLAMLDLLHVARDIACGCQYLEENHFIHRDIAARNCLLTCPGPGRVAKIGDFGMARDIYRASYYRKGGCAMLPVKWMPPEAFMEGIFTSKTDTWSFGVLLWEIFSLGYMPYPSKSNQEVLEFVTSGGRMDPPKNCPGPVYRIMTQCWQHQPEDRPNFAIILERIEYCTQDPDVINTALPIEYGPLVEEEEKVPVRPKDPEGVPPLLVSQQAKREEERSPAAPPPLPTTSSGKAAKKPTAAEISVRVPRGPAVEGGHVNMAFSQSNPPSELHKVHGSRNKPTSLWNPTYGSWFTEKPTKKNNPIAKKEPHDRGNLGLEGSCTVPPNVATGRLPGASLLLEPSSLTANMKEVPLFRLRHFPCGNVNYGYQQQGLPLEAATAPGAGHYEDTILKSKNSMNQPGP
Kind of data set: Kinase inhibition ELISA, NPM1-ALK. Type of data set: biochemical. As to conditions: for inhibition at 10 µM: 10 μM test compound, 150 μM ATP; for IC50: ten concentration points. The procedure: as §2, §3

Sequence of JAK2 (O60674 whole entry): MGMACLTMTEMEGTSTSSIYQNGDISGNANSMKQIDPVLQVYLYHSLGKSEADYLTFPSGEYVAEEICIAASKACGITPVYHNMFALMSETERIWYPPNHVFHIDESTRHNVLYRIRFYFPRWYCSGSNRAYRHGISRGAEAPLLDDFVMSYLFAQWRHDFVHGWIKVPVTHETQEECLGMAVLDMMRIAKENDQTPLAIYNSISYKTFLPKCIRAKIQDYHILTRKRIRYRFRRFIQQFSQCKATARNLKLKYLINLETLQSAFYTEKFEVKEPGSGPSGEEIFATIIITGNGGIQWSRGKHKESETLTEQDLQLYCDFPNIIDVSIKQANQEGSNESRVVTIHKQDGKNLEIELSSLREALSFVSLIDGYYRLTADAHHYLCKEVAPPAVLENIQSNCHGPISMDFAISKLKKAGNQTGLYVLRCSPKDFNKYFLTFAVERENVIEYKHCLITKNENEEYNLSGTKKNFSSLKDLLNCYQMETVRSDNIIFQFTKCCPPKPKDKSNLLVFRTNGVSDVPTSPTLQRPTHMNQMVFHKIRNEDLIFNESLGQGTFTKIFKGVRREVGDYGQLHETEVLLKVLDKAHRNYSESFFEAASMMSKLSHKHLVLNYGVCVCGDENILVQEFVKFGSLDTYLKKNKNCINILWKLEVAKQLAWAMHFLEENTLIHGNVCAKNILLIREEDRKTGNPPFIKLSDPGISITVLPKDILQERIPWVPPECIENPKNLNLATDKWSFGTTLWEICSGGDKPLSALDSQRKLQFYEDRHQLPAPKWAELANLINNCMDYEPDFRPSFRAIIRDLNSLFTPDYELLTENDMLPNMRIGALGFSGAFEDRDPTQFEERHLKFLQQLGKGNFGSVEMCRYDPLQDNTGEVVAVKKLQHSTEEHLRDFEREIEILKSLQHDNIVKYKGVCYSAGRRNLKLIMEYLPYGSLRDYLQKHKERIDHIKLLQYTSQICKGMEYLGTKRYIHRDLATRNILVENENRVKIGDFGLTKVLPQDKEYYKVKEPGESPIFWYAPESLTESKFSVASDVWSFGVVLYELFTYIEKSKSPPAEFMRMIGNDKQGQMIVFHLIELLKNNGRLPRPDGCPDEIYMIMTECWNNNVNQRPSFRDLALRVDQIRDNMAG
Sequence of EGFR[L858R][T790] (P00533 669-1210 T790M/L858R limits assumed): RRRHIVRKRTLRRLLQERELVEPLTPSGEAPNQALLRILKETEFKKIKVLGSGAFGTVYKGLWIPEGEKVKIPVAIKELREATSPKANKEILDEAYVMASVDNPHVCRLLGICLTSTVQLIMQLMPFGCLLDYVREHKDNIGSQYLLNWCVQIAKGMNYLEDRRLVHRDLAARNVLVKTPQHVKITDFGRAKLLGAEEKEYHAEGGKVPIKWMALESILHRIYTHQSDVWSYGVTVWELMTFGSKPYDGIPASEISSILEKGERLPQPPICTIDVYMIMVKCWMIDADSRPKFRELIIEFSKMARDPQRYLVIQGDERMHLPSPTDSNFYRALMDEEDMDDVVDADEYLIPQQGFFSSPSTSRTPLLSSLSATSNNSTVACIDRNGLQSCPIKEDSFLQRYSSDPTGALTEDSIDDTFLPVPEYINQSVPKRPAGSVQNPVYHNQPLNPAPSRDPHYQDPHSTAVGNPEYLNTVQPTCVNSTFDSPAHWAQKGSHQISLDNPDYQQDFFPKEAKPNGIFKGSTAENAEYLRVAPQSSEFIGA
Sequence of cRAF[Y340D][Y341D] (P04049 whole entry Y340D/Y341D): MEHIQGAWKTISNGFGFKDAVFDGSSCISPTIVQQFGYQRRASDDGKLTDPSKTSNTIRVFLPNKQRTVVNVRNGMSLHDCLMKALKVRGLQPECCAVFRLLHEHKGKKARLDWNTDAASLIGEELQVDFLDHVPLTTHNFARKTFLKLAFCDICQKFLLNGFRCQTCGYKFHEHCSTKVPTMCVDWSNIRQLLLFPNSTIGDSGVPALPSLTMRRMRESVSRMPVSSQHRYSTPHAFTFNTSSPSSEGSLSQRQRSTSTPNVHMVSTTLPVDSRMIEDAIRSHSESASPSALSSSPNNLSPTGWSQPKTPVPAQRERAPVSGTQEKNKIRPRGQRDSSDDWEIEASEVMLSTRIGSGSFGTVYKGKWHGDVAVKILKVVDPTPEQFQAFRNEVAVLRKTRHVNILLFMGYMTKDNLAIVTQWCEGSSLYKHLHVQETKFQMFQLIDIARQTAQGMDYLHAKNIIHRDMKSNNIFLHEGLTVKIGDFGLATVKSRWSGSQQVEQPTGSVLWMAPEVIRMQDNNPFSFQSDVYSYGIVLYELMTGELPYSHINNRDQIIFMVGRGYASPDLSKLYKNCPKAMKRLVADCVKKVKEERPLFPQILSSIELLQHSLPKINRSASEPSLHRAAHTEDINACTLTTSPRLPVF

For the compound `CN1c2ccc(C(=S)N3CCOCC3)cc2-c2c(ssc2=S)C1(C)C` [2a, 4,4,5-Trimethyl-8-(morpholin-4-ylcarbonothioyl)-4,5-dihydro-1H-[1,2]dithiolo[3,4-c]quinoline-1-thione], the melting point (usually the temperature of the solid-liquid transition) fell in the range of 106 to 107 °C. At EGFR[L858R][T790], the inhibition (as a rule, the share of the control response that was lost under treatment) at 10 µM came out at 82%. The compound further returned an inhibition at 10 µM against ALK of 84%. On cRAF[Y340D][Y341D], the inhibition at 10 µM was determined as 93% and the IC50 (usually the concentration at which inhibition is half-maximal) worked out at 6570 nM. In addition, the inhibition at 10 µM against JAK2 was found to be 81%. In addition, on JAK3, the inhibition at 10 µM turned out to be 96% and the IC50 was 360 nM. On NPM1-ALK, this compound registered an inhibition at 10 µM of 87% and an IC50 of 540 nM.

`COc1ccc2c(c1)-c1c(ssc1=S)C(C)(C)N2C(=O)c1cccs1` [2i, 8-Methoxy-4,4-dimethyl-5-(2-thienylcarbonyl)-4,5-dihydro-1H-[1,2]dithiolo[3,4-c]quinoline-1-thione]: the melting point fell in the range of 158 to 159 °C. For the same compound, the inhibition at 10 µM against EGFR[L858R][T790] worked out at 24%. This compound yielded an inhibition at 10 µM against ALK of 81%. 10 µM produced 76% inhibition on cRAF[Y340D][Y341D]. The same compound yielded an inhibition at 10 µM against JAK2 of 64%. Also, the inhibition at 10 µM on JAK3 turned out to be 89%. This compound also returned an inhibition at 10 µM at NPM1-ALK of 77%.

In the case of `CC1(C)c2ssc(=S)c2-c2cc(C(=S)N3CCOCC3)ccc2N1Cc1ccccc1` [2c, 5-Benzyl-4,4-dimethyl-8-(morpholin-4-ylcarbonothioyl)-4,5-dihydro-1H-[1,2]dithiolo[3,4-c]quinoline-1-thione], the inhibition at 10 µM worked out at 88% on EGFR[L858R][T790]; 77% against ALK; 93% at cRAF[Y340D][Y341D]; 76% against JAK2; 95% on JAK3; 75% against NPM1-ALK. In addition, the IC50 at cRAF[Y340D][Y341D] is 780 nM; at JAK3 it was 410 nM.

The compound `CC1(C)Nc2cc3c(cc2-c2c1ssc2=S)OCCO3` [2h, 4,4-dimethyl-4,5,8,9-tetrahydro-1H-[1,4]dioxino[2,3-g][1,2]dithiolo[3,4-c]quinoline-1-thione] registered a melting point of 238 to 239 °C. This compound gave an inhibition at 10 µM at EGFR[L858R][T790] of 27%. 10 µM produced 49% inhibition against ALK. This compound displayed an inhibition at 10 µM against cRAF[Y340D][Y341D] of 44%. At 10 µM the inhibition against JAK2 was 10%. 10 µM produced 36% inhibition against JAK3. Besides, at NPM1-ALK, 10 µM produced 42% inhibition.

With `COc1ccc2c(c1)-c1c(ssc1=S)C(C)(C)N2C(=O)CN1C(=O)CCC1=O` [2j, 1-[2-(8-Methoxy-4,4-dimethyl-1-thioxo-1,4-dihydro-5H-[1,2]dithiolo[3,4-c]quinolin-5-yl)-2-oxoethyl]pyrrolidine-2,5-dione], the melting point fell in the range of 201 to 202 °C. The compound also yielded an inhibition at 10 µM on EGFR[L858R][T790] of 9%. At ALK, the inhibition at 10 µM is 7%. Besides, the inhibition at 10 µM on cRAF[Y340D][Y341D] was 5%. Further, the inhibition at 10 µM on JAK2 worked out at 11%. On JAK3, this compound returned an inhibition at 10 µM of 39%. In addition, the inhibition at 10 µM at NPM1-ALK was determined as 56%.

Turning to `CC1(C)c2ssc(=S)c2-c2cc(C(=S)N3CCCCC3)ccc2N1Cc1ccccc1` [2d, 5-Benzyl-4,4-dimethyl-8-(piperidin-1-ylcarbonothioyl)-4,5-dihydro-1H-[1,2]dithiolo[3,4-c]quinoline-1-thione], the inhibition at 10 µM against EGFR[L858R][T790] was determined as 12%; against ALK, 39%; at cRAF[Y340D][Y341D], 61%; against JAK2, 33%; at JAK3, 69%; at NPM1-ALK it was 41%.

With `CN1c2ccc(C(=S)N3CCN(c4ccccc4)CC3)cc2-c2c(ssc2=S)C1(C)C` [2b, 4,4,5-Trimethyl-8-[(4-phenylpiperazin-1-yl)carbonothioyl]-4,5-dihydro-1H-[1,2]dithiolo[3,4-c]quinoline-1-thione], the inhibition at 10 µM on EGFR[L858R][T790] was found to be 84%; at ALK, 86%; against cRAF[Y340D][Y341D], 92%; at JAK2 it was 83%; against JAK3, 95%; against NPM1-ALK, 90%. Moreover, the IC50 is 380 nM against JAK3 and 250 nM against NPM1-ALK.

As to `COc1cccc(N=c2ssc3c2-c2cccc4c2N(C(=O)C4=O)C3(C)C)c1` [2q, 10-[(3-Methoxyphenyl)imino]-7,7-dimethyl-7,10-dihydro[1,2]dithiolo[3,4-c]pyrrolo[3,2,1-ij]quinoline-4,5-dione], the melting point lay in the range of 195 to 196 °C. On EGFR[L858R][T790], this compound gave an inhibition at 10 µM of 71%. The compound also yielded an inhibition at 10 µM against ALK of 51%. In addition, on cRAF[Y340D][Y341D], the inhibition at 10 µM worked out at 92% and it took 5340 nM to reach half-maximal inhibition (IC50). Further, 10 µM produced 9% inhibition on JAK2. At JAK3, this compound gave an inhibition at 10 µM of 99% and a concentration for half-maximal inhibition (IC50) of 460 nM. For the same compound, testing at 10 µM against NPM1-ALK gave an inhibition of 36%.

For the compound `COc1ccc2c(c1)N(C(=O)c1sc3ccccc3c1Cl)C(C)(C)c1ssc(=S)c1-2` [2l, 5-[(3-Chloro-1-benzothien-2-yl)carbonyl]-7-methoxy-4,4-dimethyl-4,5-dihydro-1H-[1,2]dithiolo[3,4-c]quinoline-1-thione], the melting point fell in the range of 218 to 219 °C. At EGFR[L858R][T790], this compound registered an inhibition at 10 µM of 24%. Moreover, at ALK, the inhibition at 10 µM came to 75%. Testing at 10 µM against cRAF[Y340D][Y341D] gave an inhibition of 81%. Also, the inhibition at 10 µM at JAK2 was found to be 53%. At JAK3, this compound displayed an inhibition at 10 µM of 86%. For the same compound, the inhibition at 10 µM on NPM1-ALK was 67%.
